Assay results published in patent US11918550B2, “Sensitization of cancer cells to differentiation therapy with mitochondrial uncoupler niclosamide ethanolamine” (The Board of Trustees of the Leland Stanford Junior …, priority 2020, dated 2024).

How the values were obtained:
Format in all cases: cell-based
[1] = tested on: RA-resistant neuroblastoma cells; experiment: Morphological differentiation with 5-AZA and 13-cis-RA; settings: 5-AZA with 1 μM 13-cis-RA, 3 days and 6 days
SK-N-BE(2) cells [2] = experiment: Western blot of RA signaling proteins; settings: 1 μM 5-AZA with 1 μM RA, 24 hrs
Description: (§1) Protein extraction and immunoblot. Cells were washed with ice-cold PBS buffer (Invitrogen, 20012050) and lysed with harvest buffer (10 mM Hepes pH 7.9, 50 mM NaCl, 500 mM sucrose, 0.1 mM EDTA and 0.5% Trition X-100) supplemented with 1% Halt inhibitors (Thermo Scientific™, 78443) for 10 minutes. Cell lysate was centrifuged at 3000 rpm for 3 min at 4° C. The supernatant containing cytosolic proteins was transferred to a different tube. The pellet containing nuclear proteins was dissolved with nuclear lysis buffer (10 mM Hepes pH 7.9, 0.5M NaCl, 0.1 mM EDTA, 0.1 mM EGTA and 0.1% NP40) supplemented with 1% Halt inhibitors (Thermo Scientific™, 78443) for 5 minutes at 4° C. Then the solution was sonicated at 4° C. for 6 cycles (1 cycle=30 s sonication and 30 s cooldown with “High” energy intensity) using a Bioruptor® Plus sonication (Diagenode, UCD-300). After sonication, the solution was centrifuged at 15,000 rpm for 10 minutes. The supernatant was kept as nuclear extraction. Protein concentration was determined by BCA assay (Thermo Scientific, 23227). 5 μg nuclear proteins or 7.5 μg cytosolic proteins were boiled in loading buffer with reducing reagents (Invitrogen, NuPAGE™ LDS Sample Buffer (4X), NP0007), then separated with SDS-PAGE (Nupage™ 4-12% Bis-Tris Protein Gels, 1.0 mm, Invitrogen™, NP0322BOX). Protein was transferred onto a nitrocellulose membrane (Thermo Scientific™, 88018). After blocking in 5% non-fat milk for 30 minutes at room temperature (RT), the primary antibody was added for incubation overnight at 4° C. After washing with TBST (CST, #9997, 1:10 diluted by deionized water) for 3 times, HRP-conjugated secondary antibodies were applied. Signals were detected with an ECL kit (Thermo Scientific™, 34577) by using BioRad Universal Hood II.

SK-N-BE(2) cells [3] = experiment: Global DNA methylation analysis by LC-MS (5mdc/dc); settings: 1 μM, 5 h, 24 h and 48 h vs DMSO
NB16 cells = experiment: Expression of RA receptors under RA treatment; settings: NB16, RA 24 h
Description: as §1

SK-N-BE2 = experiment: Expression of RA receptors under RA treatment; settings: SK-N-BE2, RA 24 h
Description: as §1

NB16 = experiment: Cell proliferation and morphology change under RA treatment; settings: NB16, 13-cis-RA
Description: (§2) Cell proliferation and clonogenic assay. 2×10^4 cells were seeded in 12 well-plate and allowed to attached overnight. Then the cells were treated with various conditions as indicated for 48 h or 96 h (n=3). After treatment, cells were counted using hemocytometer.

SMS-KCNR = experiment: as above; settings: 13-cis-RA
Description: as §2

SK-N-BE(2) = experiment: as above; settings: 13-cis-RA
Description: as §2

CHP134 = experiment: as above; settings: CHP134, 13-cis-RA
Description: as §2

Structure (SMILES) | differentiation with RA (morphological changes) [1] | RA-induced expression of CRABP2 (SK-N-BE(2) cells [2]) | RA-induced expression of RARγ (SK-N-BE(2) cells [2]) | global DNA methylation (ratio of 5-methyl-deoxycytidine to deoxycytidine) (SK-N-BE(2) cells [3]) | induction of RARα upon RA treatment (vs RA-sensitive cell lines) (NB16 cells) | induction of RARγ upon RA treatment (vs RA-sensitive cell lines) (NB16 cells) | induction of RARα upon RA treatment (vs RA-sensitive cell lines) (SK-N-BE2) | induction of RARγ upon RA treatment (vs RA-sensitive cell lines) (SK-N-BE2) | proliferation arrest (NB16; 48 hrs and 96 hrs) | differentiation morphology (NB16; 96 hrs) | proliferation (SMS-KCNR; 48 hrs and 96 hrs) | neuron differentiation morphology (SMS-KCNR; 96 hrs) | proliferation arrest (SK-N-BE(2); 48 hrs and 96 hrs) | differentiation morphology (SK-N-BE(2); 96 hrs) | proliferation (CHP134; 48 hrs and 96 hrs) | neuron differentiation morphology (CHP134; 96 hrs)
Nc1ncn([C@@H]2O[C@H](CO)[C@@H](O)[C@H]2O)c(=O)n1 [5-Aza, 5-Azacytidine] | induced differentiation | enhanced | enhanced | reduced |  |  |  |  |  |  |  |  |  |  |  | 
CC1=C(/C=C/C(C)=C/C=C/C(C)=C\C(=O)O)C(C)(C)CCC1 [RA, 13-cis-retinoic acid] |  |  |  |  | less induction | less induction | less induction | less induction | did not show | did not show | proliferation arrest | significantly induced | did not show | did not show | proliferation arrest | significantly induced
